According to patent publication US10208046B2, “Nitrogen-containing heterocyclic compound” (Takeda Pharmaceutical Company Limited, priority 2014, dated 2019):

Columns and labels:
[1] = system: IP1 production in hippocampi; assay: Measurement of myo-inositol 1 phosphate (IP1) in rat hippocampi after oral administration; assay type: in vivo, male Long-Evans rats; details: rat hippocampus IP1/protein ratio, Vehicle group as 100%
Protocol: Measurement of Myo-Inositol 1 Phosphate (IP1)
Animals used were male Long-Evans rats. They were used after acclimation for at least 1 week. Test compounds were suspended in 0.5% (w/v) aqueous methylcellulose solution, and the suspension was orally administered to the rats. After a given time, lithium chloride was dissolved in saline and subcutaneously administered into the rats. After a given time, their bilateral hippocampi were isolated from the rats, and the wet weight thereof was measured. The isolated hippocampi were homogenized with HEPES buffer, followed by centrifugation. The IP1 and protein concentrations in the supernatant were measured by IP-One HTRF(R) assay kit (Cisbio Bioassays) and BCA protein assay kit (Thermo Scientific), respectively. The level of the IP1 production was expressed as the ratio of the concentration of IP1 to that of protein. The increase rate of the IP1 production was shown as a relative value when Vehicle administration group as 100%.

[2] = target: T1, human M1 receptor (hCHRM1) (Homo sapiens, UniProt P11229); assay: Measurement of M1 receptor positive allosteric modulator (M1PAM) activity, calcium fluorescence in CHO-K1 cells; assay type: cell-based; details: for activity (%) at 10 μM: 10 μM test compound with acetylcholine at EC20, 100% = acetylcholine 1 μM, 0% = DMSO; for EC50: inflection point in the concentration-dependent curve, acetylcholine at EC20 (final 0.6-0.8 nM), CHO-K1 cells expressing human M1, Fluo-4, FLIPRtetra, read-out: IP value;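 as to EC50: potency reported as IP value in nM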
T1 construct: expressed in transfected cells
T1 sequence (P11229 1-460): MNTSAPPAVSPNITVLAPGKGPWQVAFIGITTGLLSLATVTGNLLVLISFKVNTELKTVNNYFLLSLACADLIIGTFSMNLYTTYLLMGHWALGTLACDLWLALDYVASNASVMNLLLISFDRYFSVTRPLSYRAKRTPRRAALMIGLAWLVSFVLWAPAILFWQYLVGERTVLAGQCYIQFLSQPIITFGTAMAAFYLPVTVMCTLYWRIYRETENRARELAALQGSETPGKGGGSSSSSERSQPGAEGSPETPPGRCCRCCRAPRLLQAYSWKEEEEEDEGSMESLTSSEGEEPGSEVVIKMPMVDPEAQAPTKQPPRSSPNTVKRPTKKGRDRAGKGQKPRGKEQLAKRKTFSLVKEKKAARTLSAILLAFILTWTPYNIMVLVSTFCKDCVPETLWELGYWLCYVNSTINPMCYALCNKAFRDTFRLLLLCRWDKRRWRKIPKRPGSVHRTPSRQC
How it was run: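 CHO-K1 cells stably expressing human M1, Fluo-4 loaded, treated with compound plus acetylcholine at EC20 (final 0.6-0.8 nM); calcium fluorescence read by FLIPR over 1 min. Activity scaled to 1 μM acetylcholine (100%) and DMSO (0%); IP = inflection point of concentration-response curve.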

[3] = system: Scopolamine-induced memory deficits models; assay: Novel object recognition test; assay type: in vivo, male Long-Evans rats; details: scopolamine 0.1 mg/kg s.c., retention trial 4 hr later, mean±standard error
Protocol: Novel Object Recognition Test Novel object recognition test is comprised of two trials called the acquisition and the retention trials. Scopolamine-induced memory deficits models were used for the test, and animals used were male Long-Evans rats (7-week-old). On the day before the test, for acclimation, the rats were allowed to freely move about the test box (40×40×50 cm) for 10 minutes. On the test day, the rats were acclimated to the test room for about 1 hr prior to the test. The test compounds were orally administered to the rats in a single dose 2 hours before the acquisition trial. For induction of learning and memory deficits, scopolamine (0.1 mg/kg) was subcutaneously administered into the rats 30 min before the acquisition trial. For the acquisition trial, two identical objects (A1, A2) were placed in the test box. The rats were put in the test box for 3 min, and the duration exploring each object was measured. The retention trial was performed 4 hr after the acquisition trial. […] The duration for exploring each object in the acquisition trial and the retention trial was measured, and the exploration rate of novel object was calculated. The exploration rate of novel object was expressed as (the duration exploring the novel object)/[(the duration exploring the novel object)+(the duration exploring the familiar object)]×100(%) at mean±standard error.

| SMILES | increase rate (% of Vehicle) ([1]; 30 mg/kg oral) | activity (%) at 10 μM [2] [%] | EC50 [2] [nM] | exploration rate of novel object (%) ([3]; 3 mg/kg oral single dose 2 hours before acquisition trial) | exploration rate of novel object (%) ([3]; 10 mg/kg oral single dose 2 hours before acquisition trial) | increase rate (% of Vehicle) ([1]; 10 mg/kg oral) | increase rate (% of Vehicle) ([1]; 3 mg/kg oral) |
| --- | --- | --- | --- | --- | --- | --- | --- |
| Cc1nn(C)cc1-c1ccc(CN2Cc3ccnc(OCC(F)F)c3C2=O)cc1 [Example 6, 4-(2,2-difluoroethoxy)-2-(4-(1,3-dimethyl-1H-pyrazol-4-yl)benzyl)-1,2-dihydro-3H-pyrrolo[3,4-c]pyridin-3-one] | 38 % of Vehicle | 109 | 70 | 58.75±2.01 | 52.48±2.28 |  |  |
| Cc1nn(C)cc1-c1ccc(CN2Cc3ncnc(OCC(C)(F)F)c3C2=O)cc1 [Example 22, 4-(2,2-difluoropropoxy)-6-(4-(1,3-dimethyl-1H-pyrazol-4-yl)benzyl)-6,7-dihydro-5H-pyrrolo[3,4-d]pyrimidin-5-one] |  | 100 | 28 |  |  | 71 % of Vehicle |  |
| Cc1nn(C)cc1-c1ccc(CN2Cc3ncnc(OCC(C)(F)F)c3C2=O)c(F)c1 [Example 23, 4-(2,2-difluoropropoxy)-6-(4-(1,3-dimethyl-1H-pyrazol-4-yl)-2-fluorobenzyl)-6,7-dihydro-5H-pyrrolo[3,4-d]pyrimidin-5-one] |  | 94 | 6 |  |  |  | 27 % of Vehicle |
| Cn1cc(-c2ccc(CN3Cc4ncnc(OCC(F)(F)F)c4C3=O)cc2)nn1 [Example 104, 6-(4-(1-methyl-1H-1,2,3-triazol-4-yl)benzyl)-4-(2,2,2-trifluoroethoxy)-6,7-dihydro-5H-pyrrolo[3,4-d]pyrimidin-5-one] |  | 95 | 61 |  |  |  |  |
| Cn1cc(-c2ccc(CN3Cc4ccnc(OCC(C)(F)F)c4C3=O)c(F)c2)nn1 [Example 106, 4-(2,2-difluoropropoxy)-2-(2-fluoro-4-(1-methyl-1H-1,2,3-triazol-4-yl)benzyl)-1,2-dihydro-3H-pyrrolo[3,4-c]pyridin-3-one] |  | 90 | 29 |  |  |  |  |
| Cn1cc(-c2ccc(CN3Cc4ccnc(OCC(C)(F)F)c4C3=O)cc2)nn1 [Example 107, 4-(2,2-difluoropropoxy)-2-(4-(1-methyl-1H-1,2,3-triazol-4-yl)benzyl)-1,2-dihydro-3H-pyrrolo[3,4-c]pyridin-3-one] |  | 92 | 72 |  |  |  |  |
| Cc1nn(C)cc1-c1ccc(CN2Cc3ccnc(OCC(C)(F)F)c3C2=O)c(F)c1 [Example 108, 4-(2,2-difluoropropoxy)-2-(4-(1,3-dimethyl-1H-pyrazol-4-yl)-2-fluorobenzyl)-1,2-dihydro-3H-pyrrolo[3,4-c]pyridin-3-one] |  | 94 | 16 |  |  |  |  |
| Cc1nn(C)cc1-c1ccc(CN2Cc3ccnc(OCC(F)F)c3C2=O)c(F)c1 [Example 112, 4-(2,2-difluoroethoxy)-2-(4-(1,3-dimethyl-1H-pyrazol-4-yl)-2-fluorobenzyl)-1,2-dihydro-3H-pyrrolo[3,4-c]pyridin-3-one] |  | 101 | 41 |  |  |  |  |
| Cn1cc(-c2ccc(CN3Cc4ccnc(OCC(F)(F)F)c4C3=O)c(F)c2)nn1 [Example 114, 2-(2-fluoro-4-(1-methyl-1H-1,2,3-triazol-4-yl)benzyl)-4-(2,2,2-trifluoroethoxy)-1,2-dihydro-3H-pyrrolo[3,4-c]pyridin-3-one] |  | 102 | 56 |  |  |  |  |
| Cn1cc(-c2ccc(CN3Cc4ccnc(OCC(F)F)c4C3=O)c(F)c2)nn1 [Example 115, 4-(2,2-difluoroethoxy)-2-(2-fluoro-4-(1-methyl-1H-1,2,3-triazol-4-yl)benzyl)-1,2-dihydro-3H-pyrrolo[3,4-c]pyridin-3-one] |  | 98 | 43 |  |  |  |  |
